Data reported in patent US20190247340A1, “EPILEPSY TREATMENT EMPLOYING KETOGENIC COMPOUNDS WHICH ARREST APOPTOSIS” (priority 2004, published 2019).
Values joined by “and” are separate entries in the source; they are usually repeats but may differ in a detail not shown here. Equal values may be shown once.

Test system: CA1 region of hippocampal organotypic cultures
Experiment: Kainic acid-induced neuronal cell death (experimental status epilepticus), propidium iodide uptake in hippocampal organotypic cultures
Type: cell-based, rat
Procedure: A seizure-induced neuronal cell death in vitro experimental model of status epilepticus was provided as follows. The neuroprotective potential of (R)-3-hydroxybutyrate sodium salt (BHB) (0.3 mM, 1 mM and 3 mM) was assessed by propidium iodide uptake into hippocampal organotypic cultures administered 1 μM KA for 24 h to induce experimental status epilepticus. Neuronal cell death is already observed at 24 h subsequent to KA-application therefore, it was of no value to administer to the cultures at this time-point. Test compound was, therefore, added to the cultures before significant neuronal cell death occurred.
Hippocampal organotypic slice cultures were prepared according to the Gähwiler roller-tube method (Gähwiler B H (1981) and Gähwiler et al (1997)) from nine rat pups aged between […].
Rat pups were killed by cervical dislocation, their brains rapidly removed and placed in a Petri dish. The meninges were removed from the caudal section of the cortex and then the brain was located with the ventral surface uppermost. Two transverse cuts were made, the first, at the level of the cerebellum to remove the brainstem, and the second, at the level of the optic chiasm to remove the forebrain. The cerebellum, midbrain and hindbrain were lifted upwards from the surrounding cortical tissue leaving one hippocampus embedded within each cortical hemisphere. An incision was made down the midline to separate the two cortical hemispheres. To separate the hippocampus from the surrounding cortical tissue three incisions were made around the hippocampus and then it was rolled out from the underlying tissue. The isolated hippocampus was then placed in a drop of ice-cold Gey's balanced salt solution containing 0.5% D-glucose (GBSS+G). The procedure was then repeated to isolate the remaining hippocampus. The whole procedure was performed using a Swift dissecting microscope and took between 10-15 mins thereby minimizing tissue deterioration.
The hippocampi were transferred to a Mcllwain tissue chopper and sectioned into a series of 400 μm thick slices. After sectioning, the hippocampi were placed in ice-cold GBSS+G and the slices gently teased apart. The slices were washed once in GBSS+G and the integrity of the slices checked under a higher magnification. If the slices had any tears, an opaque appearance or the cell body layers were not easily visible, they were discarded. A healthy slice has a yellow-brown colouration without any blackening in the cell body regions.
To adhere the hippocampal slice to a coverslip (Agar Scientific, UK), 20 μl of chicken plasma was placed in the middle of the coverslip followed by a hippocampal slice. The plasma was spread thinly over the surface of the coverslip, to ensure the slice was well coated. Then, 30 μl of thrombin (75 units/ml activity) was placed over the slice and mixed thoroughly with the chicken plasma. The plasma-thrombin mixture was left for approximately 60 s until a clot of jelly-like consistency had formed. The coverslip was then placed in a test-tube (Nunclon, UK) which contained 750 μl of pre-warmed culture media (37° C.). Culture media consisted of 50% basal media Earles, 25% Hank's balanced salt solution, 25% heat inactivated horse serum, […] L-glutamine and 0.5% D-glucose. The test tubes were sealed with a screw top lid and placed in a custom made roller-drum (Medical School Workshop, University of Nottingham) at an angle of 5°, rotating at 10 revolutions per hour in a dry incubator at 37° C.
After 48 h in vitro, 500 μl of media was removed and the cultures were incubated in culture media containing a combination of anti-mitotics, which consisted of 5-fluorodeoxyuridine, cytosine-β-D-arabino-furanoside (ARA-C) and uridine each at a concentration of 1 μM. After a further 24 h, 500 μl of media was removed and replaced with 500 μl of new culture media containing no anti-mitotics. […]

SMILES | percentage propidium iodide uptake (mean) (KA 1 μM alone for 24 h, then washout, assessed at 7 d, n=12, control cultures 1.81) | percentage propidium iodide uptake (mean) (KA 1 μM alone for 24 h, assessed at 24 h, n=12, control cultures 1.68) | percentage propidium iodide uptake (mean) (KTX0101 0.3 mM added 30 mins after KA 1 μM, assessed at 24 h, n=12) [%] | percentage propidium iodide uptake (mean) (KTX0101 0.3 mM for 7 d following KA 1 μM for 24 h, assessed at 7 d, n=12) [%] | percentage propidium iodide uptake (mean) (KTX0101 0.3 mM for 7 d following KA 1 μM for 24 h, assessed at 7 d, n=12, listed as BHB) | percentage propidium iodide uptake (mean) (KTX0101 1.0 mM added 30 mins after KA 1 μM, assessed at 24 h, n=13) [%] | percentage propidium iodide uptake (mean) (KTX0101 1.0 mM for 7 d following KA 1 μM for 24 h, assessed at 7 d, n=13) [%] | percentage propidium iodide uptake (mean) (KTX0101 1.0 mM for 7 d following KA 1 μM for 24 h, assessed at 7 d, n=13, listed as BHB) | percentage propidium iodide uptake (mean) (KTX0101 3.0 mM added 30 mins after KA 1 μM, assessed at 24 h, n=13) [%] | percentage propidium iodide uptake (mean) (KTX0101 3.0 mM for 7 d following KA 1 μM for 24 h, assessed at 7 d, n=13) [%] | percentage propidium iodide uptake (mean) (KTX0101 3.0 mM for 7 d following KA 1 μM for 24 h, assessed at 7 d, n=13, listed as BHB)
C=C(C)[C@H]1CN[C@H](C(=O)O)[C@H]1CC(=O)O [KA, kainic acid, reference compound] | 6.97±2.03% and 6.97% | 8.89±1.78% and 8.89% |  |  |  |  |  |  |  |  | 
C[C@@H](O)CC(=O)[O-].[Na+] [KTX0101, sodium salt of (R)-3-hydroxybutyrate] |  |  | 6.48 | 1.54 | 1.54±0.33% and 1.54% | 4.89 | 1.05 | 1.05±0.29% and 1.05% | 4.72 | 1.25 | 1.25±0.21% and 1.25%
